Molecules are shown by their SMILES. Like-named read-outs stand apart in the source and are kept apart here.

Common to all, as to assay type: in vivo
Test [1] relates to Myzus persicae. Put plainly: Myzus persicae spray test (MYZUPE), contrastive examples. The settings on record: 120 h, 5 dat, read-out: % efficacy. The protocol:
Solvent: 78.0 parts by weight of acetone • • 1.5 parts by weight of dimethylformamide Emulsifier: alkylaryl polyglycol ether To produce a suitable active ingredient formulation, 1 part by weight of active ingredient is dissolved with the specified parts by weight of solvent and made up to the desired concentration with water containing an emulsifier concentration of 1000 ppm. To produce further test concentrations, the formulation is diluted with emulsifier-containing water. Discs of chinese cabbage leaves (Brassica pekinensis) infested by all stages of the green peach aphid (Myzus persicae) are sprayed with an active ingredient formulation of the desired concentration. After the desired time, the efficacy in % is determined. 100% means that all aphids have been killed; 0% means that no aphids have been killed.

The next test relates to Tetranychus urticae. Kind of test: Tetranychus urticae spray test; OP-resistant (TETRUR), contrastive examples. The settings on record: 144 h, 6 dat, read-out: % efficacy. As to the method:
Solvent: 78.0 parts by weight of acetone • • 1.5 parts by weight of dimethylformamide Emulsifier: alkylaryl polyglycol ether To produce an appropriate active ingredient formulation, 1 part by weight of active ingredient is dissolved with the stated parts by weight of solvent and made up with water containing an emulsifier concentration of 1000 ppm until the desired concentration is attained. For production of further test concentrations, the mixture is diluted with emulsifier-containing water. Discs of bean leaves (Phaseolus vulgaris) infested by all stages of the common spider mite (Tetranychus urticae) are sprayed with an active ingredient formulation of the desired concentration. After the desired time, the efficacy in % is determined. 100% means that all spider mites have been killed; 0% means that no spider mites have been killed.

Another test relates to Aphis gossypii. Kind of test: Aphis gossypii spray test (APHIGO). The settings on record: 144 h, 6 dat, read-out: % efficacy. The protocol:
Solvent: 14 parts by weight of dimethylformamide Emulsifier: alkylaryl polyglycol ether To produce an appropriate active ingredient formulation, 1 part by weight of active ingredient is dissolved with the stated parts by weight of solvent and made up with water containing an emulsifier concentration of 1000 ppm until the desired concentration is attained. For production of further test concentrations, the mixture is diluted with emulsifier-containing water. If addition of ammonium salts or/and penetrants is required, these are each added to the preparation solution in a concentration of 1000 ppm. Cotton plants (Gossypium hirsutum) severely infested by the cotton aphid (Aphis gossypii) are sprayed with an active ingredient formulation of the desired concentration. After the desired time, the kill in % is determined. 100% means that all aphids have been killed; 0% means that no aphids have been killed.

Test [2] has as its system Myzus persicae. Kind of test: Myzus persicae drench test (MYZUPE D). The settings on record: soil, 240 h, 10 dat, read-out: % efficacy. As to the method:
Solvent: 7 parts by weight of dimethylformamide Emulsifier: 2 parts by weight of alkylaryl polyglycol ether To produce an appropriate active ingredient formulation, 1 part by weight of active ingredient is mixed with the stated amounts of solvent and emulsifier, and the concentrate is diluted with water to the desired concentration, it being necessary to take into account soil volume into which drenching is effected. It should be ensured that a concentration of 40 ppm of emulsifier in the soil is not exceeded. For production of further test concentrations, the mixture is diluted with water. Savoy cabbage plants (Brassica oleracea) in earth pots, infested by all stages of the green peach aphid (Myzus persicae), are drenched with an active ingredient formulation of the desired concentration. After the desired time, the efficacy in % is determined. 100% means that all aphids have been killed; 0% means that no aphids have been killed.

In test [3] the test system is Nilaparvata lugens. Put plainly: Nilaparvata lugens spray test (NILALU). The settings on record: 96 h, 4 dat, read-out: % efficacy. The protocol: Solvent: 52.5 parts by weight of acetone • 7 parts by weight of dimethylformamide
Emulsifier: alkylaryl polyglycol ether
To produce an appropriate active ingredient formulation, 1 part by weight of active ingredient is dissolved with the stated parts by weight of solvent and made up with water containing an emulsifier concentration of 1000 ppm until the desired concentration is attained. For production of further test concentrations, the mixture is diluted with emulsifier-containing water. If addition of ammonium salts or/and penetrants is required, these are each added to the preparation solution in a concentration of 1000 ppm.
Rice plants (Oryza sativa) are sprayed with an active ingredient formulation of the desired concentration and then populated with larvae of the rice cicada (Nilaparvata lugens).
After the desired time, the efficacy in % is determined. 100% means that all rice cicadas have been killed; 0% means that no rice cicadas have been killed.

The test system of the next test is Nezara viridula. Put plainly: Nezara viridula spray test (NEZARA). The settings on record: 96 h, NEZAVI, 4 dat, read-out: % efficacy. The protocol: Solvent: 52.5 parts by weight of acetone • 7 parts by weight of dimethylformamide Emulsifier: alkylaryl polyglycol ether To produce an appropriate active ingredient formulation, 1 part by weight of active ingredient is dissolved with the stated parts by weight of solvent and made up with water containing an emulsifier concentration of 1000 ppm until the desired concentration is attained. For production of further test concentrations, the mixture is diluted with emulsifier-containing water. If addition of ammonium salts or/and penetrants is required, these are each added to the preparation solution in a concentration of 1000 ppm. Barley plants (Hordeum vulgare) infested with larvae of the southern green shield bug (Nezara viridula) are sprayed with an active ingredient formulation of the desired concentration. After the desired time, the efficacy in % is determined. 100% means that all bugs have been killed; 0% means that no bugs have been killed.

For test [4], the system named is Nilaparvata lugens. Put plainly: Nilaparvata lugens test (NILALU S). The settings on record: read-out: % efficacy. The protocol: Solvent: 14 parts by weight of dimethylformamide Emulsifier: 2 parts by weight of alkylaryl polyglycol ether To produce an appropriate active ingredient formulation, 1 part by weight of active ingredient is dissolved with the stated parts by weight of solvent and emulsifier and made up with water until the desired concentration is attained. For production of further test concentrations, the mixture is diluted with water. If addition of ammonium salts or/and penetrants (rapeseed oil methyl ester) is required, these are each pipetted into the finished preparation solution in a concentration of 1000 ppm after the dilution. Rice plants (Oryza sativa, var. Balilla) are treated by spraying with the active ingredient formulation in the desired concentration and then populated with L3 larvae of the brown planthopper (Nilaparvata lugens). After the desired time, the kill in % is determined. 100% means that all planthoppers have been killed and 0%, means that no planthoppers have been killed.

As to `CCNC(=O)Nc1ccc(S(=O)(=O)CC)c(-c2nc3cc(C(F)(F)C(F)(F)F)nnc3n2C)n1` [Comparison, reference compound], the Emax at 4 g/ha in the test with Myzus persicae [1] and in the test with Nilaparvata lugens [3] was 0% in each case. In addition, in the test on Tetranychus urticae, the Emax at 100 g/ha came out at 0%. The Emax at 4 ppm with Aphis gossypii came to 15%. The Emax at 0.8 ppm in the test with Myzus persicae [2] was determined as 0%; in the test on Nilaparvata lugens [4] (168 h, 7 dat), 5%; with Nilaparvata lugens [4] (336 h, 14 dat), 20%. In the test on Nezara viridula, the Emax at 0.8 g/ha is 0%.

These data come from patent US11505553B2, “2-(Het)aryl-substituted fused heterocycle derivatives as pesticides” (Bayer Aktiengesellschaft, priority 2017, dated 2022).
